Laboratory results from US20250073357A1, “GADOLINIUM-BASED COMPOUND, AND MRI CONTRAST AGENT INCLUDING SAME” (THERANOCURE CO., LTD., priority 2021, published 2025).

Legend:
[1] = Measurement of relaxivity (r1, r2), phantom in 3T MRI; type: physicochemical; details: tertiary distilled water, 0.0625-1 mM, linear regression, in mM-1 s-1 (unit assumed)
Description: The relaxivity (r1, r2) of each of synthesized Gd-DO3A-Va, and cyclic commercial contrast agents Gadovist® and Dotarem® as comparison groups material was measured. Specifically, a phantom was prepared by diluting the gadolinium complex in tertiary distilled water to five concentrations (0.0625, 0.125, 0.25, 0.5, 1 mM), and then T1 and T2 relaxation times were measured in 3T MRI. Thus, R (Relaxation rate=1/T) of each concentration was calculated and the relaxivity (r1, r2) result of the gadolinium complex was obtained through linear regression analysis (see FIG. 3) and shown in a following Table 1.

amyloid beta polymer = amyloid beta polymer (Homo sapiens, UniProt P05067); assay: Amyloid beta polymer targeting ability, MRI phantom experiment; type: binding; details: incubated with amyloid beta polymer 37° C. 24 hours, washed, 9.4T MR
Description: • (1) 221.5 uL of HFIP was added to 1 mg of amyloid beta at a concentration of 1 mM, followed by shaking for 1 hour at room temperature using a shaker to remove preaggregation. • (2) The amyloid beta from which the preaggregation was removed was dried, and 221.5 uL of DMSO was added thereto to achieve a 1 mM concentration. Using a mixer and sonicator, a suspension thereof was prepared, and 878.5 uL of PBS (1×, pH 7.4) was added thereto to achieve a 0.2 mM concentration. • (3) After incubating the suspension at 37° C. for 4 days using a shaker, the polymerized amyloid beta polymer was dispensed by 200 uL. Then, 20 μL of a solution in which each of Gd-DO3A-Va and the commercial contrast agent (Gadovist®) was dissolved in PBS at 2 mM concentration was added thereto. The incubation was carried out thereon at 37° C. for 24 hours using a shaker. • (4) After 24 hours has elapsed, centrifugation was performed thereon to remove the supernatant therefrom. The amyloid beta polymer was washed using PBS. 200 μL of a solution of PBS:DMSO=9:1 was added to a pellet to prepare an MRI phantom sample. As a control, a phantom sample obtained by incubating only the amyloid beta polymer was used. […]

amyloid beta polymer, sequence (P05067 672-713 limits assumed): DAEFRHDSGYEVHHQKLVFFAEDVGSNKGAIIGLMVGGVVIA

Row | relaxivity r1 [1] | relaxivity r2 [1] | Structure (SMILES) | contrast enhancement / signal intensity compared to phantom of only amyloid beta polymer (amyloid beta polymer)
1 | 3.4 ± 0.1 | 3.9 ± 0.2 | CNC[C@H](O)[C@@H](O)[C@H](O)[C@H](O)CO.O=C([O-])CN1CCN(CC(=O)[O-])CCN(CC(=O)O)CCN(CC(=O)[O-])CC1.[Gd+3] [Dotarem ®] | 
2 | 3.9 ± 0.1 | 4.8 ± 0.1 | O=C([O-])CN1CCN(CC(=O)[O-])CCN([C@H](CO)[C@H](O)CO)CCN(CC(=O)[O-])CC1.[Gd+3] (racemic) [Gadovist ®] | little difference in contrast enhancement effect
